In patent US20260083865A1, “PROSTATE SPECIFIC MEMBRANE ANTIGEN (PSMA) LIGANDS AND USE THEREOF” (priority 2022, published 2026):
Read-outs that look alike come from different tables or passages of the source. Values belong to the molecule of their own block, whether it stands above or below them. Numbered stars: 1 amine (or outer) side, 2 acyl side, 3 side chain; on linkers, the order of the positions; unused ones are H or OH. Bridge positions count the residues as written; N and C are the ends. Square brackets hold non-standard residues; d marks the D form. Peptide text beside a SMILES is read from it. * marks the point of attachment. X11 = O=C(CCCC[C@@H]1SC[C@@H]2NC(=O)N[C@@H]21)NCCCOCCOCCOCCCNC(=O)CCC(=O)NCCCOCCOCCOCCCN*; X7 = O=C(O)CN1CCN(CC(=O)O)CCN(CC(=O)NC2CCN(CC(=O)*)CC2)CCN(CC(=O)O)CC1; DOTA = O=C(O)CN1CCN(CC(=O)O)CCN(CC(=O)*)CCN(CC(=O)O)CC1; Phe(3-Cl) = N[C@@H](Cc1cccc(Cl)c1)C(=O)O; Phe(4-Cl) = N[C@@H](Cc1ccc(Cl)cc1)C(=O)O; Phe(2-Cl) = N[C@@H](Cc1ccccc1Cl)C(=O)O; Arg(Me) = CNC(=N)NCCC[C@H](N)C(=O)O; Lys(iPr) = CC(C)NCCCC[C@H](N)C(=O)O; Ethylenediamine = C(CN[*:2])N[*:1]; X5 = O=C(c1ccc(CN[*:1])nc1)[*:2]; X1 = O=C(CC1CCN([*:1])CC1)[*:2]; Cit = NC(=O)NCCC[C@H](N)C(=O)O; Suc = O=C(CCC(=O)[*:2])[*:1]; Tle = CC(C)(C)[C@H](N)C(=O)O; Propanoyl(3-OH) = O=C(CCO)*; Aib = CC(C)(N)C(=O)O

Assays:
[1] = target: T1, PSMA-expressing C4-2 cells (Homo sapiens, UniProt Q04609); assay: FACS binding assay (competition with 50 nM PSM-0183); conditions: read-out: pIC50 [C4-2] CAT (converted)
T1 construct: PSMA-expressing C4-2 cells (ATCC, Cat. No. CRL-3314) were cultured in RPMI-1640; host or cells: C4-2 cells
Procedure, shortened: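 C4-2 cells were incubated 1 h at 4 °C with 50 nM AF488-labelled peptide PSM-0183 plus increasing test compound concentrations, then washed twice in ice-cold buffer. Median fluorescence in the AF488 channel was read by flow cytometry. IC50/pIC50 was derived by 4PL fitting of MFI versus concentration.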

[2] = target: T2, Fc-fusion protein of human PSMA (hPSMA-Fc) (Homo sapiens, UniProt Q04609); assay: Surface plasmon resonance assay (Biacore T200, single cycle kinetic); type: binding; conditions: read-out: pKD CAT (converted)
T2 construct: purchased Acro Biosystems PSA-H5264
Procedure, shortened: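 hPSMA-Fc was captured (~1000 RU) on an Fc-binding-peptide CM5 chip, and compounds were run in single cycle kinetic mode at 25° C in HBST with 0.1% DMSO. Double-blank-corrected sensorgrams were fitted to a 1:1 Langmuir model to give KD, reported as pKD.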

[3] = FACS binding, C4-2 cells, competition with 50 nM PSM-0183, category
[4] = SPR, hPSMA-Fc, single cycle kinetic, 25° C., category
[5] = FACS binding, PSMA-expressing C4-2 cells, pIC50 category
[6] = PSMA SPR assay, hPSMA-Fc, 25° C., pKD category
[7] = pIC50 category of FACS binding, C4-2 cells
[8] = pKD category for PSMA SPR activity assay, hPSMA-Fc, 25° C.

T1 sequence (Q04609 whole entry): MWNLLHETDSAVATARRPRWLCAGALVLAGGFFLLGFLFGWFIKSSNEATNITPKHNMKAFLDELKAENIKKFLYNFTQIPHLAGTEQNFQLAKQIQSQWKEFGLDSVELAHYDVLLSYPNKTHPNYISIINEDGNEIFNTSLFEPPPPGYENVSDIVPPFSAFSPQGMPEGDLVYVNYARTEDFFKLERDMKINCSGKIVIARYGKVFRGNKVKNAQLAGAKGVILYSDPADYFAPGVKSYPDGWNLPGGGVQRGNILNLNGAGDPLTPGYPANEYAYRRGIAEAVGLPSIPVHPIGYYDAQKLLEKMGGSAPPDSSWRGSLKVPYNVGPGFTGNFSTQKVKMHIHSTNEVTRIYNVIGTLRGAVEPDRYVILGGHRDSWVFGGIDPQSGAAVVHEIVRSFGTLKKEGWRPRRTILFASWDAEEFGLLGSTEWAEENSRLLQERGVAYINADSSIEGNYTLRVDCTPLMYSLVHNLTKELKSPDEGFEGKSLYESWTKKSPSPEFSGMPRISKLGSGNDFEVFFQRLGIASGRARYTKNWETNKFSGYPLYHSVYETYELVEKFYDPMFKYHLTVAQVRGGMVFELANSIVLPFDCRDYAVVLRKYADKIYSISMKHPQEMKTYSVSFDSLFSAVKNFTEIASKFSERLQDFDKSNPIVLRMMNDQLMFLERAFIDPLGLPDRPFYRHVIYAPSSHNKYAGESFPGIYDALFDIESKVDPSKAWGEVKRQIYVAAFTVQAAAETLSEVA
T2 sequence (Q04609 44-750 limits assumed): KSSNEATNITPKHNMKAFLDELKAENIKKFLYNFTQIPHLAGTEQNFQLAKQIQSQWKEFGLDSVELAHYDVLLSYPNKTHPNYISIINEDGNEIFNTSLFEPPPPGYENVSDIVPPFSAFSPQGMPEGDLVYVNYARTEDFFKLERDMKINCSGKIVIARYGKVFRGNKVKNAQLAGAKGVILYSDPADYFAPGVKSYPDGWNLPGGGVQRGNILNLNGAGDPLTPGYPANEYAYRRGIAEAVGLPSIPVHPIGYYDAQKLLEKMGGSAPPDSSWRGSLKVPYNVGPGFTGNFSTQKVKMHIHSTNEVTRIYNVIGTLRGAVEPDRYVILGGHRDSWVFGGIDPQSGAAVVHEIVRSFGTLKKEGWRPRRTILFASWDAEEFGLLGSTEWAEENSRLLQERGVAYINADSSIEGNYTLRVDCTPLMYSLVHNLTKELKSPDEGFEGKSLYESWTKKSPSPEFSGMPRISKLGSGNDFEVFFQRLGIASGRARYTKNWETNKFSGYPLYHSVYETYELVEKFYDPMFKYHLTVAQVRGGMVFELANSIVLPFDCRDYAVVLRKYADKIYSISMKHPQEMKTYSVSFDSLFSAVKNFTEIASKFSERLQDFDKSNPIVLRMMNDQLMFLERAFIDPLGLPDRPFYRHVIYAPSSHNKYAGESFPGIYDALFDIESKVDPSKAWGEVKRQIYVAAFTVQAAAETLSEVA

SMILES: CC(=O)NCc1ccc(C(=O)NC(C)(C)C(=O)N[C@@H](Cc2ccc(Cl)cc2)C(=O)N[C@H]2CSSC[C@@H](C(=O)N[C@H](C(=O)NCCNC(=O)CN3CCN(CC(=O)O)CCN(CC(=O)O)CCN(CC(=O)O)CC3)C(C)(C)C)NC(=O)[C@H](CC(N)=O)NC(=O)C(C)(C)NC(=O)[C@H](CCCNC(=N)N)NC(=O)[C@H](CCCCN)NC2=O)cn1 [PSM-0186, Ac-Pamp-Aib-Pcf-[Cys-Lys-Arg-Aib-Asn-Cys]-Tle-en-DOTA] (Ac-[X5][Aib][Phe(4-Cl)]CKR[Aib]NC[Tle]-{Ethylenediamine-DOTA}; disulfide 4-9)
IC50 [1, 3]: < 200 nM
Kd [2, 4]: < 12.6 nM

SMILES: CC(=O)N[C@H](C(=O)NC(C)(C)C(=O)N[C@@H](Cc1ccccc1Cl)C(=O)N[C@H]1CSSC[C@@H](C(=O)N[C@H](C(=O)N[C@H](C(=O)N[C@@H](CC(=O)O)C(N)=O)[C@@H](C)O)C(C)(C)C)NC(=O)[C@H](CC(N)=O)NC(=O)C(C)(C)NC(=O)[C@H](CCCNC(=N)N)NC(=O)[C@H](CCCCN)NC1=O)[C@@H](C)O [PSM-0558, Ac-Thr-Aib-Ocf-[Cys-Lys-Arg-Aib-Asn-Cys]-Tle-Thr-Asp-NH2] (Ac-T[Aib][Phe(2-Cl)]CKR[Aib]NC[Tle]TD-NH2; disulfide 4-9)
IC50 [1, 7]: < 200 nM
Kd [2, 8]: 12.6 to 126 nM

SMILES: C[C@@H](O)[C@H](NC(=O)[C@@H](NC(=O)[C@@H]1CSSC[C@H](NC(=O)[C@H](Cc2ccc(Cl)cc2)NC(=O)C(C)(C)NC(=O)[C@@H](NC(=O)CCC(=O)NCCCOCCOCCOCCCNC(=O)CCC(=O)NCCCOCCOCCOCCCNC(=O)CCCC[C@@H]2SC[C@@H]3NC(=O)N[C@@H]32)[C@@H](C)O)C(=O)N[C@@H](CCCCN)C(=O)N[C@@H](CCCNC(=N)N)C(=O)NC(C)(C)C(=O)N[C@@H](CC(N)=O)C(=O)N1)C(C)(C)C)C(N)=O [PSM-0575, Bio-Ttds-Ttds-Thr-Aib-Pcf-[Cys-Lys-Arg-Aib-Asn-Cys]-Tle-Thr-NH2] ({X11-Suc}-T[Aib][Phe(4-Cl)]CKR[Aib]NC[Tle]T-NH2; disulfide 4-9)
IC50 ([1]; FACS binding, C4-2 cells, category): < 200 nM
Kd ([2]; PSMA SPR assay, category): < 12.6 nM

Continued, values first:

IC50 [1, 5]: 200 to 1260 nM
Kd [2, 6]: < 12.6 nM
SMILES: CC(=O)NCCCC[C@@H]1NC(=O)[C@H](CCCCN)NC(=O)[C@@H](NC(=O)[C@H](Cc2ccc(Cl)cc2)NC(=O)C(C)(C)NC(=O)[C@@H](NC(=O)CC2CCN(C(=O)CN3CCN(CC(=O)O)CCN(CC(=O)O)CCN(CC(=O)O)CC3)CC2)[C@@H](C)O)CSSC[C@@H](C(=O)N[C@H](C(=O)N[C@H](C(N)=O)[C@@H](C)O)C(C)(C)C)NC(=O)[C@H](CC(N)=O)NC(=O)C(C)(C)NC1=O [PSM-0341, DOTA-Cmp-Thr-Aib-Pcf-[Cys-Lys-Lys(Ac)-Aib-Asn-Cys]-Tle-Thr-NH2] ({DOTA}-[X1]T[Aib][Phe(4-Cl)]CKK(Ac)[Aib]NC[Tle]T-NH2; disulfide 5-10)

IC50 [1, 5]: < 200 nM
Kd [2, 6]: < 12.6 nM
SMILES: C[C@@H](O)[C@H](NC(=O)[C@@H](NC(=O)[C@@H]1CSSC[C@H](NC(=O)[C@H](Cc2ccc(Cl)cc2)NC(=O)C(C)(C)NC(=O)CCO)C(=O)N[C@@H](CCCCN)C(=O)N[C@@H](CCCNC(=N)N)C(=O)N[C@@H](CCCCNC(=O)CN2CCC(NC(=O)CN3CCN(CC(=O)O)CCN(CC(=O)O)CCN(CC(=O)O)CC3)CC2)C(=O)N[C@@H](CC(N)=O)C(=O)N1)C(C)(C)C)C(N)=O [PSM-0324, HPA-Aib-Pcf-[Cys-Lys-Arg-Lys(DOTA-APAc)-Asn-Cys]-Tle-Thr-NH2] ({Propanoyl(3-OH)}-[Aib][Phe(4-Cl)]CKRK(X7)NC[Tle]T-NH2; disulfide 3-8)

IC50 [1, 7]: 200 to 1260 nM
Kd [2, 8]: < 12.6 nM
SMILES: C[C@@H](O)[C@H](NC(=O)[C@@H](NC(=O)[C@@H]1CSSC[C@H](NC(=O)[C@H](Cc2cccc(Cl)c2)NC(=O)C(C)(C)NC(=O)[C@@H](NC(=O)CC2CCN(C(=O)CN3CCN(CC(=O)O)CCN(CC(=O)O)CCN(CC(=O)O)CC3)CC2)[C@@H](C)O)C(=O)N[C@@H](CCCCN)C(=O)N[C@@H](CCCNC(N)=O)C(=O)NC(C)(C)C(=O)N[C@@H](CC(N)=O)C(=O)N1)C(C)(C)C)C(N)=O [PSM-0431, DOTA-Cmp-Thr-Aib-Mcf-[Cys-Lys-Cit-Aib-Asn-Cys]-Tle-Thr-NH2] ({DOTA}-[X1]T[Aib][Phe(3-Cl)]CK[Cit][Aib]NC[Tle]T-NH2; disulfide 5-10)

IC50 [1, 3]: < 200 nM
Kd [2, 4]: < 12.6 nM
SMILES: CNC(=N)NCCC[C@@H]1NC(=O)[C@H](CCCCNC(C)C)NC(=O)[C@@H](NC(=O)[C@H](Cc2ccc(Cl)cc2)NC(=O)C(C)(C)NC(=O)[C@@H](NC(=O)CC2CCN(C(=O)CN3CCN(CC(=O)O)CCN(CC(=O)O)CCN(CC(=O)O)CC3)CC2)[C@@H](C)O)CSSC[C@@H](C(=O)N[C@H](C(=O)N[C@H](C(N)=O)[C@@H](C)O)C(C)(C)C)NC(=O)[C@H](CC(N)=O)NC(=O)C(C)(C)NC1=O [PSM-0244, DOTA-Cmp-Thr-Aib-Pcf-[Cys-Kip-Arg(Me)-Aib-Asn-Cys]-Tle-Thr-NH2] ({DOTA}-[X1]T[Aib][Phe(4-Cl)]C[Lys(iPr)][Arg(Me)][Aib]NC[Tle]T-NH2; disulfide 5-10)
